According to US20260193264A1, “BENZOYPARAZINE PYRAZINES AND THEIR USES” (FOGHORN THERAPEUTICS INC., priority 2022, published 2026):

Columns and labels:
[1] = biological target: T1, HiBiT-BRM fusion protein in stable HeLa cell line (Homo sapiens, UniProt P51531); assay: HiBiT-BRM cell-based degradation assay (Nano-Glo HiBiT Lytic Detection, 24 h); design: DC50: scale not given here; settings: HeLa HiBiT-BRM cells; for DC50: read-out: BRM HiBit Degradation IC50; for BRM HiBit Degradation Maximum (%): top dose 30 μM
T1 construct: expressed in transfected cells
T1 sequence (P51531 whole entry, the tested form may be a part): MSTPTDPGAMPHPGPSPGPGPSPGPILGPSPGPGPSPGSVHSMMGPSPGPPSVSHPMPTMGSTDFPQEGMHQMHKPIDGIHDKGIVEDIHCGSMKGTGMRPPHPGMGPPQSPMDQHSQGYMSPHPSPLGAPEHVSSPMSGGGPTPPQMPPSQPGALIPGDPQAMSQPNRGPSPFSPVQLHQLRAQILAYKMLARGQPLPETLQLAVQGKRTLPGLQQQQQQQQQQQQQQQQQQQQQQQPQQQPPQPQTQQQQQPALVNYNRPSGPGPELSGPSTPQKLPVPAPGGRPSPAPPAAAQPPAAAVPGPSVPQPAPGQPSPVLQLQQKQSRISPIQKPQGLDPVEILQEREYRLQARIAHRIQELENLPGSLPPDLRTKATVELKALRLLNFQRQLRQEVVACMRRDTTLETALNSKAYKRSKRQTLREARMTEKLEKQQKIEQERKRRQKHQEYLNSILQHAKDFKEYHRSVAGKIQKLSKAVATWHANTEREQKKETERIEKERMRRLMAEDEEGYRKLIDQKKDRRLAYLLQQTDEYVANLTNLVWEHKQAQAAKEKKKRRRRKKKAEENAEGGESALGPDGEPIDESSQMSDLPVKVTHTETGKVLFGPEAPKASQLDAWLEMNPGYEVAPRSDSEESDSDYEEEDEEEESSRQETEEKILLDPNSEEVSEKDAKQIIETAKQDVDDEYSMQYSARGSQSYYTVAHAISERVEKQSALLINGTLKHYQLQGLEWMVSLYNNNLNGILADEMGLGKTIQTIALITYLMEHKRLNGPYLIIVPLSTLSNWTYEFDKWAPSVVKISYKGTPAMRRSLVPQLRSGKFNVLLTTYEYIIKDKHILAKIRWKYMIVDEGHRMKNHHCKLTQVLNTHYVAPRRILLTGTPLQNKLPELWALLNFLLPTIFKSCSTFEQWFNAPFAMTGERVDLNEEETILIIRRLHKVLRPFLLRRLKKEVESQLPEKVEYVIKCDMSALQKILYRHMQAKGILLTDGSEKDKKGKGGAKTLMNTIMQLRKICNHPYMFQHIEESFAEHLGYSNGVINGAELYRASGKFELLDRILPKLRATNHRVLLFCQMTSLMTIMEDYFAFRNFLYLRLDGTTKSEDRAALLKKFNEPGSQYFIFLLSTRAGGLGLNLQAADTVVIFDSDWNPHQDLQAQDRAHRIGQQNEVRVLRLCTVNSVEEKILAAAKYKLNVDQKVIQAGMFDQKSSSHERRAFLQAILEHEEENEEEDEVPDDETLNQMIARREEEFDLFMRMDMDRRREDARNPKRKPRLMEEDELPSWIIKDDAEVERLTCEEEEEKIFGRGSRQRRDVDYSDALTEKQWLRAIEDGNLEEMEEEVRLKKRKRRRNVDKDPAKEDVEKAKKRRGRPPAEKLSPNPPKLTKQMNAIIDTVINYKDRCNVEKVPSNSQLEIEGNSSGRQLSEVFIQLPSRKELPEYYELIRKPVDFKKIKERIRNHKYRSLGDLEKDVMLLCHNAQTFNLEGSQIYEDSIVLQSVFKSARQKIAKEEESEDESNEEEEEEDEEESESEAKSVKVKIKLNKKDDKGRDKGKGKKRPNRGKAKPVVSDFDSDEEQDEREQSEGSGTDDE
How it was run: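 Luminescence from HiBiT/LgBiT complementation after lysis reports remaining HiBiT-BRM in stable HeLa cells exposed to compound for 24 h. Dosing used 3-fold serial dilutions, 10 points, 30 μM top final concentration. DMSO and a 2 μM BRM/BRG1 degrader standard defined 0% and 100% degradation.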

[2] = biological target: T2, HiBit-BRG1 fusion protein in stable HeLa cell line expressing HiBit-BRG1 and LgBit (Homo sapiens, UniProt P51532); assay: HiBiT-BRG1 cell-based degradation assay (Nano-Glo HiBiT, 24 h); settings: HeLa HiBit-BRG1/LgBit cells; for Dmax: top dose 30 μM, read-out: BRG1 HiBit Degradation Maximum (%); for DC50: read-out: BRMG1 HiBit Degradation IC50
T2 construct: expressed in transfected cells
T2 sequence (P51532 whole entry, the tested form may be a part): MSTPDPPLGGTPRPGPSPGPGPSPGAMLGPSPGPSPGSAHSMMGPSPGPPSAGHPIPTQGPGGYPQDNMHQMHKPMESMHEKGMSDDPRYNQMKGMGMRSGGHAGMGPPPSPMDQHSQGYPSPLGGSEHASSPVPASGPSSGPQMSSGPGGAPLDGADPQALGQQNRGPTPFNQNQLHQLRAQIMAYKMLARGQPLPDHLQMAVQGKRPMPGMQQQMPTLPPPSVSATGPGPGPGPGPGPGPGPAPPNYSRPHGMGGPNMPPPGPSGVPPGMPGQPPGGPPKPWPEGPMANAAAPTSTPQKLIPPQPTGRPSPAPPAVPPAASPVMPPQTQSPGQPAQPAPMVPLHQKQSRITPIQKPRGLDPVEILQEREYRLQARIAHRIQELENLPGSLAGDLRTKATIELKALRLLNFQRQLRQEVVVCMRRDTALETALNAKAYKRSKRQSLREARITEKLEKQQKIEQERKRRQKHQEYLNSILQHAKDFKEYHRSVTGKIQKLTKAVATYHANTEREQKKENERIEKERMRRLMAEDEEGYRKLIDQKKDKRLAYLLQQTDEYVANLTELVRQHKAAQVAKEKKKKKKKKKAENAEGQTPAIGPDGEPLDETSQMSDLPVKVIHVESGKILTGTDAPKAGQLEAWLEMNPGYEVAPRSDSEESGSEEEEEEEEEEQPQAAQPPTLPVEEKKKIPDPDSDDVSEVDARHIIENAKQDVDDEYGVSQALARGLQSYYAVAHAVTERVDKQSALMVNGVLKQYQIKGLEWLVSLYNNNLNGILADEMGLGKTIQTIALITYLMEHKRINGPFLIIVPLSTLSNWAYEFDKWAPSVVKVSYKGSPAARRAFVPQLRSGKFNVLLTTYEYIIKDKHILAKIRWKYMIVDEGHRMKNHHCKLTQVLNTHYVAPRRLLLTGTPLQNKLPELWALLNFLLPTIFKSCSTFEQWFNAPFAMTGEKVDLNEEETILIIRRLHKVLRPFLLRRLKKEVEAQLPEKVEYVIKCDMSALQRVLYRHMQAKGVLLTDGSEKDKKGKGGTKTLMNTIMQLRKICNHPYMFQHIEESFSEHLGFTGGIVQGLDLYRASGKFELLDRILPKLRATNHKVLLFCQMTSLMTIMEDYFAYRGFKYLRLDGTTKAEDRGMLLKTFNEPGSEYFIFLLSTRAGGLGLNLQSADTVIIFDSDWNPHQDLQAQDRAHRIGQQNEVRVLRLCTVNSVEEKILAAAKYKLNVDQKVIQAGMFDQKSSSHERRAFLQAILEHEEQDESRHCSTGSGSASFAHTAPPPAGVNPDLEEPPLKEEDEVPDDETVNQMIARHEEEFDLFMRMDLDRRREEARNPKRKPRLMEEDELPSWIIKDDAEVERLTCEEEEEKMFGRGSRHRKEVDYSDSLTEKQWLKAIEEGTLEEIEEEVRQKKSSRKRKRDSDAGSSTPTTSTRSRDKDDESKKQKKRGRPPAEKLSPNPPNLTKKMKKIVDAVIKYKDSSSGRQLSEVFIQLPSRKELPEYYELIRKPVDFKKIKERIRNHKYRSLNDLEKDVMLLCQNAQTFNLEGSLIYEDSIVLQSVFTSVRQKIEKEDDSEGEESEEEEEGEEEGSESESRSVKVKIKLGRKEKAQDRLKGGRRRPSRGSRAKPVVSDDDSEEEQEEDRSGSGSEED
How it was run: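 Stable HeLa line co-expressing HiBiT-BRG1 and LgBiT, compound-treated 24 h; luminescence read after Nano-Glo HiBiT lytic reagent. % degradation normalised between DMSO (high control) and 2 μM reference BRM/BRG1 degrader (low control).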

Row | SMILES | DC50 [1] [µM] | Dmax [2] [%] | DC50 [2] [µM] | BRM HiBit Degradation Maximum (%) [1]
1 | Cc1ncsc1-c1ccc([C@H](C)NC(=O)[C@@H]2C[C@@H](O)CN2C(=O)C(c2cc(N3CC4(CN(c5cc(C(F)F)c6cc(-c7ccccc7O)nnc6c5)C4)C3)no2)C(C)C)cc1 (stereo partly drawn) [Compound 191, (2S,4R)-1-(2-(3-(6-(5-(difluoromethyl)-3-(2-hydroxyphenyl)cinnolin-7-yl)-2,6-diazaspiro[3.3]heptan-2-yl)isoxazol-5-yl)-3-methylbutanoyl)-4-hydroxy-N-((S)-1-(4-(4-methylthiazol-5-yl)phenyl)ethyl)pyrrolidine-2-carboxamide] | > 0.01 | < 50 |  | A (“A” indicates maximum degradation ≥75%)
2 | COC[C@@H]1CN(c2cc([C@H](C(=O)N3C[C@H](O)C[C@H]3C(=O)N[C@@H](C)c3ccc(-c4scnc4C)cc3)C(C)C)on2)CCN1c1ccc2cc(-c3ccccc3O)nnc2c1 [Compound 196, (2S,4R)-4-hydroxy-1-((R)-2-(3-((S)-4-(3-(2-hydroxyphenyl)cinnolin-7-yl)-3-(methoxymethyl)piperazin-1-yl)isoxazol-5-yl)-3-methylbutanoyl)-N-((S)-1-(4-(4-methylthiazol-5-yl)phenyl)ethyl)pyrrolidine-2-carboxamide] | > 0.01 | < 50 |  | B (“B” indicates maximum degradation ≥50%)
3 | Cc1ncsc1-c1ccc([C@H](C)NC(=O)[C@@H]2C[C@@H](O)CN2C(=O)[C@@H](c2cc(C3CC4(C3)CN(c3ccc5cc(-c6ccccc6O)nnc5c3)C4)no2)C(C)C)cc1 [Compound 199, (2S,4R)-4-hydroxy-1-((R)-2-(3-(2-(3-(2-hydroxyphenyl)cinnolin-7-yl)-2-azaspiro[3.3]heptan-6-yl)isoxazol-5-yl)-3-methylbutanoyl)-N-((S)-1-(4-(4-methylthiazol-5-yl)phenyl)ethyl)pyrrolidine-2-carboxamide] | < 0.01 | > 75 | > 0.01 | A (“A” indicates maximum degradation ≥75%)
4 | CC(C)[C@@H](C(=O)N1C[C@H](O)C[C@H]1C(=O)N[C@@H](C)c1ccc(F)cc1)n1cc(N2CC3(CN(c4ccc5cc(-c6ccccc6O)nnc5c4)C3)C2)nn1 [Compound 201, (2S,4R)-N-((S)-1-(4-fluorophenyl)ethyl)-4-hydroxy-1-((S)-2-(4-(6-(3-(2-hydroxyphenyl)cinnolin-7-yl)-2,6-diazaspiro[3.3]heptan-2-yl)-1H-1,2,3-triazol-1-yl)-3-methylbutanoyl)pyrrolidine-2-carboxamide] | < 0.01 | > 50 | > 0.01 | A (“A” indicates maximum degradation ≥75%)
5 | CC(C)[C@@H](C(=O)N1C[C@H](O)C[C@H]1C(=O)N[C@@H](C)c1ccc(C#N)cc1)n1cc(N2CC3(CN(c4ccc5cc(-c6ccccc6O)nnc5c4)C3)C2)nn1 [Compound 202, (2S,4R)-N-((S)-1-(4-cyanophenyl)ethyl)-4-hydroxy-1-((S)-2-(4-(6-(3-(2-hydroxyphenyl)cinnolin-7-yl)-2,6-diazaspiro[3.3]heptan-2-yl)-1H-1,2,3-triazol-1-yl)-3-methylbutanoyl)pyrrolidine-2-carboxamide] | < 0.01 | > 50 | > 0.01 | A (“A” indicates maximum degradation ≥75%)
6 | Cc1ncsc1-c1ccc([C@H](C)NC(=O)[C@@H]2C[C@@H](O)CN2C(=O)[C@H](C(C)C)n2cc(-c3ccc4nnc(-c5ccccc5O)cc4c3C)nn2)cc1 [Compound 203, (2S,4R)-4-hydroxy-1-((S)-2-(4-(3-(2-hydroxyphenyl)-5-methylcinnolin-6-yl)-1H-1,2,3-triazol-1-yl)-3-methylbutanoyl)-N-((S)-1-(4-(4-methylthiazol-5-yl)phenyl)ethyl)pyrrolidine-2-carboxamide] | > 0.01 | < 50 |  | A (“A” indicates maximum degradation ≥75%)
7 | Cc1ncsc1-c1ccc([C@H](C)NC(=O)[C@@H]2C[C@@H](O)CN2C(=O)[C@H](C(C)C)n2cc(C3CC4(C3)CN(c3ccc5nnc(-c6ccccc6O)cc5c3)C4)nn2)cc1 [Compound 204, (2S,4R)-4-hydroxy-1-((S)-2-(4-(2-(3-(2-hydroxyphenyl)cinnolin-6-yl)-2-azaspiro[3.3]heptan-6-yl)-1H-1,2,3-triazol-1-yl)-3-methylbutanoyl)-N-((S)-1-(4-(4-methylthiazol-5-yl)phenyl)ethyl)pyrrolidine-2-carboxamide] | < 0.01 | > 75 | < 0.01 | A (“A” indicates maximum degradation ≥75%)
8 | Cc1ncsc1-c1ccc([C@H](C)NC(=O)[C@@H]2C[C@@H](O)CN2C(=O)[C@@H](c2cc(N3CC4(CN(c5cc(C(F)F)c6cc(-c7ccccc7O)nnc6c5)C4)C3)no2)C(C)C)cc1 [Compound 205, (2S,4R)-1-((R)-2-(3-(6-(5-(difluoromethyl)-3-(2-hydroxyphenyl)cinnolin-7-yl)-2,6-diazaspiro[3.3]heptan-2-yl)isoxazol-5-yl)-3-methylbutanoyl)-4-hydroxy-N-((S)-1-(4-(4-methylthiazol-5-yl)phenyl)ethyl)pyrrolidine-2-carboxamide] | < 0.01 | < 50 |  | A (“A” indicates maximum degradation ≥75%)
9 | Cc1ncsc1-c1ccc([C@H](C)NC(=O)[C@@H]2C[C@@H](O)CN2C(=O)[C@@H](c2cc(N3CC4(C3)CN(c3cc5nnc(-c6ccccc6O)cc5cc3OC(F)F)C4)no2)C(C)C)cc1 [Compound 206, (2S,4R)-1-((R)-2-(3-(6-(6-(difluoromethoxy)-3-(2-hydroxyphenyl)cinnolin-7-yl)-2,6-diazaspiro[3.3]heptan-2-yl)isoxazol-5-yl)-3-methylbutanoyl)-4-hydroxy-N-((S)-1-(4-(4-methylthiazol-5-yl)phenyl)ethyl)pyrrolidine-2-carboxamide] | < 0.01 | > 50 | > 0.01 | A (“A” indicates maximum degradation ≥75%)

Further lines, with some results ahead:

Row | DC50 [1] [µM] | Dmax [2] [%] | DC50 [2] [µM] | SMILES | BRM HiBit Degradation Maximum (%) [1]
10 | < 0.01 | < 50 |  | Cc1ncsc1-c1ccc([C@H](C)NC(=O)[C@@H]2C[C@@H](O)CN2C(=O)[C@H](C(C)C)n2cc(-c3ccc4nnc(-c5ccccc5O)cc4c3Cl)nn2)cc1 [Compound 190, (2S,4R)-1-((S)-2-(4-(5-chloro-3-(2-hydroxyphenyl)cinnolin-6-yl)-1H-1,2,3-triazol-1-yl)-3-methylbutanoyl)-4-hydroxy-N-((S)-1-(4-(4-methylthiazol-5-yl)phenyl)ethyl)pyrrolidine-2-carboxamide] | A (“A” indicates maximum degradation ≥75%)
11 | < 0.01 | > 75 | < 0.01 | Cc1ncsc1-c1ccc([C@H](C)NC(=O)[C@@H]2C[C@@H](O)CN2C(=O)[C@H](C(C)C)n2cc(N3CCC4(CCN(c5ccc6cc(-c7ccccc7O)nnc6c5)CC4)CC3)nn2)cc1 [Compound 192, (2S,4R)-4-hydroxy-1-((S)-2-(4-(9-(3-(2-hydroxyphenyl)cinnolin-7-yl)-3,9-diazaspiro [5.5]undecan-3-yl)-1H-1,2,3-triazol-1-yl)-3-methylbutanoyl)-N-((S)-1-(4-(4-methylthiazol-5-yl)phenyl)ethyl)pyrrolidine-2-carboxamide] | A (“A” indicates maximum degradation ≥75%)
12 | < 0.01 | > 75 | > 0.01 | Cc1ncsc1-c1ccc([C@H](C)NC(=O)[C@@H]2C[C@@H](O)CN2C(=O)[C@H](C2CCC2)n2cc(N3CC4(CC(c5ccc6cc(-c7ccccc7O)nnc6c5)C4)C3)nn2)cc1 [Compound 193, (2S,4R)-1-((S)-2-cyclobutyl-2-(4-(6-(3-(2-hydroxyphenyl)cinnolin-7-yl)-2-azaspiro[3.3]heptan-2-yl)-1H-1,2,3-triazol-1-yl)acetyl)-4-hydroxy-N-((S)-1-(4-(4-methylthiazol-5-yl)phenyl)ethyl)pyrrolidine-2-carboxamide] | A (“A” indicates maximum degradation ≥75%)
13 | < 0.01 | > 50 |  | Cc1ncsc1-c1ccc([C@H](C)NC(=O)[C@@H]2C[C@@H](O)CN2C(=O)[C@@H](c2cc(N3CC4(CN(c5ccc6cc(-c7ccccc7O)nnc6c5)C4)C3)sn2)C(C)C)cc1 [Compound 195, (2S,4R)-4-hydroxy-1-[(2R)-2-(5-{6-[3-(2-hydroxyphenyl)cinnolin-7-yl]-2,6-diazaspiro[3.3]heptan-2-yl}-1,2-thiazol-3-yl)-3-methylbutanoyl]-N-[(1S)-1-[4-(4-methyl-1,3-thiazol-5-yl)phenyl]ethyl]pyrrolidine-2-carboxamide] | A (“A” indicates maximum degradation ≥75%)
14 | < 0.01 | > 75 | < 0.01 | Cc1ncsc1-c1ccc([C@H](C)NC(=O)[C@@H]2C[C@@H](O)CN2C(=O)C(C(C)C)n2cc(N3CCC4(CC3)CN(c3ccc5cc(-c6ccccc6O)nnc5c3)C4)nn2)cc1 (stereo partly drawn) [Compound 197, (2S,4R)-4-hydroxy-1-(2-(4-(2-(3-(2-hydroxyphenyl)cinnolin-7-yl)-2,7-diazaspiro[3.5]nonan-7-yl)-1H-1,2,3-triazol-1-yl)-3-methylbutanoyl)-N-((S)-1-(4-(4-methylthiazol-5-yl)phenyl)ethyl)pyrrolidine-2-carboxamide] | A (“A” indicates maximum degradation ≥75%)
15 | < 0.01 | > 75 | < 0.01 | Cc1ncsc1-c1ccc([C@H](C)NC(=O)[C@@H]2C[C@@H](O)CN2C(=O)[C@H](C(C)C)n2cc(N3CCN4CCN(c5ccc6cc(-c7ccccc7O)nnc6c5)C[C@H]4C3)nn2)cc1 [Compound 198] | A (“A” indicates maximum degradation ≥75%)
